Assay results from patent US12661342B2, “Heteroaryl compounds and therapeutic uses thereof in conditions associated with the alteration of the activity of beta-glucocerebrosidase” (GT GAIN THERAPEUTICS SA, priority 2019, dated 2026).

Target: T1, β-glucocerebrosidase (Homo sapiens, UniProt P04062, L483P)
T1 construct: host or cells: human Gaucher disease patient fibroblasts GM08760A
T1 sequence (P04062 40-536 L483P): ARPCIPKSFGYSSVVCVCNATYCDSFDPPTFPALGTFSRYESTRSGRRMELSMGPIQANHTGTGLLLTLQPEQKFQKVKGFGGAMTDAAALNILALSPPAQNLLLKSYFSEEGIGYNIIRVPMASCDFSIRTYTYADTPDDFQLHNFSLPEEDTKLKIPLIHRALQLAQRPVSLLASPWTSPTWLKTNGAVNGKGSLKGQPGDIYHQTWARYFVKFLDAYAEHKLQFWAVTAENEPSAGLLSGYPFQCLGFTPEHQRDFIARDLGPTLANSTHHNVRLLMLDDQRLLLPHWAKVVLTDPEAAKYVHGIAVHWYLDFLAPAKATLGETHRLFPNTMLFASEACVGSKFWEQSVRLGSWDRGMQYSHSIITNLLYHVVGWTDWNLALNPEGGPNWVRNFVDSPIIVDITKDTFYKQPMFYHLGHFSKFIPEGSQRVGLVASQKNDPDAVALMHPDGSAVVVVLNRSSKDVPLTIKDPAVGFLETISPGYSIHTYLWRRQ
Test: Enhancement of β-glucocerebrosidase activity measured in Gaucher disease fibroblasts (4-MU-β-D-glucopyranoside substrate, intact cells)
Format: cell-based
Design: key: Increase in comparison with non-treated of >2.0 fold is shown as A; Increase in comparison with non-treated of >1.7-2.0 fold is shown as B; Increase in comparison with non-treated of 1.2-1.7 fold is shown as C; D means that no increase compared with non-treated cells was detected in this method
Conditions: GBA fibroblasts bearing L444P (GM08760A, homozygous p.L444P); compound at concentrations between 6 and 50 μM; 4 days incubation
In short: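 Patient fibroblasts homozygous for p.L444P (GM08760A), grown in DMEM/10% FBS and exposed to compound for 4 days. Intact cells then given 4-MU-β-D-glucopyranoside in 0.1 M acetate pH 4, 1 h, 37 °C; stopped at pH 10.7, 4-MU fluorescence ex 340/em 460. Value is fold increase over untreated cells; binned at 6–50 μM.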

Compound | Range: increase in enzyme activity in comparison with non-treated cells (Enzyme activity assay for exemplified compounds) | Range: increase in enzyme activity in comparison with non-treated cells (Enzyme activity assay for compounds of Examples 33-141)
COc1cccc(Nc2nc(N)cc(C(=O)N(C)c3ccccc3)n2)c1 [Example 7, 6-Amino-2-((3-methoxyphenyl)amino)-N-methyl-N-phenylpyrimidine-4-carboxamide] | D | –
Nc1cc(Nc2ccccc2O)cc(C(=O)N2CCc3ccccc3C2)n1 [Example 49, (6-Amino-4-((2-hydroxyphenyl)amino)pyridin-2-yl)(3,4-dihydroisoquinolin-2(1H)-yl)methanone] | – | B (Increase in comparison with non-treated of >1.7-2.0 fold is shown as B)
COc1ccccc1Nc1cc(N)cc(C(=O)N(C)C2Cc3ccccc3C2)n1 [Example 106, 4-Amino-N-(2,3-dihydro-1H-inden-2-yl)-6-((2-methoxyphenyl)amino)-N-methyl-picolinamide] | – | C (Increase in comparison with non-treated of 1.2-1.7 fold is shown as C)
Nc1cc(Nc2cccc(F)c2)nc(C(=O)NC2Cc3ccccc3C2)c1 [Example 92, 4-Amino-N-(2,3-dihydro-1H-inden-2-yl)-6-((3-fluorophenyl)amino)picolinamide] | – | A (Increase in comparison with non-treated of >2.0 fold is shown as A)
COc1ccccc1Nc1nc(N)nc(C(=O)NC2CCc3ccccc3C2)n1 (stereo not drawn) [Example 20, 4-Amino-6-((2-methoxyphenyl)amino)-N-(1,2,3,4-tetrahydronaphthalen-2-yl)-1,3,5-triazine-2-carboxamide] | C (Increase in comparison with non-treated of 1.2-1.7 fold is shown as C) | –
CN(C(=O)c1cc(N)cc(Nc2ccccc2O)n1)c1ccccc1 [Example 110, 4-Amino-6-((2-hydroxyphenyl)amino)-N-methyl-N-phenylpicolinamide] | – | C (Increase in comparison with non-treated of 1.2-1.7 fold is shown as C)
Nc1cc(C(=O)N2Cc3ccccc3C2)nc(Nc2ccccc2O)n1 [Example 8, (6-Amino-2-((2-hydroxyphenyl)amino)pyrimidin-4-yl)(isoindolin-2-yl)methanone] | C (Increase in comparison with non-treated of 1.2-1.7 fold is shown as C) | –
Nc1cc(Nc2ccccc2F)cc(C(=O)N2CCN(c3ccccc3)CC2)n1 [Example 62] | – | D
Nc1cc(C(=O)N2Cc3ccccc3C2)nc(Nc2cccc(O)c2)n1 [Example 39, (6-Amino-2-((3-hydroxyphenyl)amino)pyrimidin-4-yl)(isoindolin-2-yl)methanone] | – | C (Increase in comparison with non-treated of 1.2-1.7 fold is shown as C)
COc1ccccc1Nc1cc(N)cc(C(=O)N(C)c2ccccc2)n1 [Example 113, 6-(2-Methoxyphenylamino)-4-amino-N-methyl-N-phenylpyridine-2-carboxamide] | – | C (Increase in comparison with non-treated of 1.2-1.7 fold is shown as C)
Nc1cc(Nc2ccccc2O)nc(C(=O)N2CCN(c3ccccc3)CC2)n1 [Example 125, (4-Amino-6-((2-hydroxyphenyl)amino)pyrimidin-2-yl)(4-phenylpiperazin-1-yl)methanone] | – | C (Increase in comparison with non-treated of 1.2-1.7 fold is shown as C)
CN(C(=O)c1cc(N)cc(Nc2cccc(F)c2)n1)c1ccccc1 [Example 115, 6-(3-Fluorophenylamino)-4-amino-N-methyl-N-phenylpyridine-2-carboxamide] | – | C (Increase in comparison with non-treated of 1.2-1.7 fold is shown as C)
COc1cccc(Nc2nc(N)cc(C(=O)N3CCN(c4ccccc4)CC3)n2)c1 [Example 2, (6-Amino-2-((3-methoxyphenyl)amino)pyrimidin-4-yl)(4-phenylpiperazin-1-yl)methanone] | C (Increase in comparison with non-treated of 1.2-1.7 fold is shown as C) | –
COc1cccc(Nc2cc(N)cc(C(=O)Nc3ccccc3)n2)c1.Cl [Example 135, 4-Amino-6-((3-methoxyphenyl)amino)-N-phenylpicolinamide hydrochloride] | – | A (Increase in comparison with non-treated of >2.0 fold is shown as A)
Cc1cccc(Nc2cc(N)cc(C(=O)NC3Cc4ccccc4C3)n2)c1 [Example 97, 4-Amino-N-(2,3-dihydro-1H-inden-2-yl)-6-(m-tolylamino)picolinamide] | – | A (Increase in comparison with non-treated of >2.0 fold is shown as A)
Cc1ccc(Nc2cc(N)nc(C(=O)Nc3ccccc3)c2)c(O)c1 [Example 77, 6-Amino-4-((2-hydroxy-4-methylphenyl)amino)-N-phenylpicolinamide] | – | C (Increase in comparison with non-treated of 1.2-1.7 fold is shown as C)
CN(C(=O)c1cc(Nc2ccccc2O)cc(N)n1)c1ccccc1 [Example 128, 6-Amino-4-((2-hydroxyphenyl)amino)-N-methyl-N-phenylpicolinamide] | – | C (Increase in comparison with non-treated of 1.2-1.7 fold is shown as C)
Nc1cc(C(=O)N2CCN(c3ccccc3)CC2)nc(N[C@H]2CCCC[C@@H]2O)n1 [Example 14, (6-Amino-2-(((1S,2S)-2-hydroxycyclohexyl)amino)pyrimidin-4-yl)(4-phenylpiperazin-1-yl)methanone] | D | –
Cc1ccc(Nc2cc(N)nc(C(=O)NC3Cc4ccccc4C3)c2)c(O)c1 [Example 68, 6-Amino-N-(2,3-dihydro-1H-inden-2-yl)-4-((2-hydroxy-4-methylphenyl)amino)picolinamide] | – | C (Increase in comparison with non-treated of 1.2-1.7 fold is shown as C)
Nc1nc(Nc2cccc(Br)c2)nc(C(=O)NC2CCc3ccccc3C2)n1 (stereo not drawn) [Example 19, 4-Amino-6-((3-bromophenyl)amino)-N-(1,2,3,4-tetrahydronaphthalen-2-yl)-1,3,5-triazine-2-carboxamide] | C (Increase in comparison with non-treated of 1.2-1.7 fold is shown as C) | –
COc1cccc(Nc2nc(N)c3c(n2)CN(Cc2ccccc2)CC3)c1 [Example 27, 7-Benzyl-N^2-(3-methoxyphenyl)-5,6,7,8-tetrahydropyrido[3,4-d]pyrimidine-2,4-diamine] | A (Increase in comparison with non-treated of >2.0 fold is shown as A) | –
Nc1cc(C(=O)Nc2ccccc2)cc(Nc2ccccc2O)n1 [Example 46, 2-Amino-6-((2-hydroxyphenyl)amino)-N-phenylisonicotinamide] | – | B (Increase in comparison with non-treated of >1.7-2.0 fold is shown as B)
Nc1cc(Nc2ccccc2Cl)cc(C(=O)N2CCN(c3ccccc3)CC2)n1 [Example 60] | – | C (Increase in comparison with non-treated of 1.2-1.7 fold is shown as C)
Nc1cc(Nc2cccc(F)c2)nc(C(=O)N2Cc3ccccc3C2)c1 [Example 116, (6-(3-Fluorophenylamino)-4-aminopyridin-2-yl)(isoindolin-2-yl)methanone] | – | C (Increase in comparison with non-treated of 1.2-1.7 fold is shown as C)
Nc1cc(Nc2cccc3c2OCO3)cc(C(=O)Nc2ccccc2)n1 [Example 73, 6-Amino-4-(benzo[d][1,3]dioxol-4-ylamino)-N-phenylpicolinamide] | – | C (Increase in comparison with non-treated of 1.2-1.7 fold is shown as C)
COc1ccccc1Nc1cc(N)nc(C(=O)NC2Cc3ccccc3C2)c1 [Example 76, 6-Amino-N-(2,3-dihydro-1H-inden-2-yl)-4-((2-methoxyphenyl)amino)picolinamide] | – | D
Nc1cc(Nc2ccccc2F)nc(C(=O)NC2Cc3ccccc3C2)c1 [Example 71, 4-Amino-N-(2,3-dihydro-1H-inden-2-yl)-6-((2-fluorophenyl)amino)picolinamide] | – | B (Increase in comparison with non-treated of >1.7-2.0 fold is shown as B)
